Reference: patent US4098823A, “Monospiroalkyl derivatives of prostaglandins” (Miles Laboratories, Inc., priority 1977, dated 1978)

Legend:
[1] = tested on: Rat Uterus; test: Effects on the Rat Uterus in Vitro; type: cell-based; conditions: Rattus norvegicus; in vitro, 29° C; response 50% that of carbachol; read-out: Test F Rat Uterus, Activity Value (ED50)
Description: The uterine stimulant effect of test compounds was determined in segments of uterus obtained from rats (140-160 g) pretreated subcutaneously with 1 mg/kg of diethyl-stilbesterol 18 hours before the experiment. The tissues were placed in 10 ml chambers filled with de-Jalon solution at 29° C, were aerated and bubbled with 95% O2 and 5% CO2, and were prepared for isometric recording with force displacement transducers. Preparations were stretched to an initial tension of 1 g and were left undisturbed for 30 minutes. Carbachol (1 mcg/ml) was then added to the bath and a response was recorded. After a 10 minute interval the carbachol procedure was repeated. Responses to increasing concentrations of a test compound (0.001 to 10 mcg/ml with one log intervals) were then recorded every 10 minutes. Preparations were washed four times after each response. All doses of compounds were administered in a 0.1 ml volume. Because it has been observed that the magnitude of the second response to carbachol (approximately 10% greater than the first) is close to the maximal response of the tissue, such value was taken as a measure of the sensitivity of a particular segment. Responses to each concentration of the test compound were expressed in terms of percentage of the second response to carbachol and the ED50 (dose producing a response 50% that of carbachol) was calculated graphically. Activity was scored according to the following scale: […]

[2] = tested on: rat stomach fundus; test: Cascade Assay, stomach (smooth muscle stimulant effect); type: cell-based; conditions: superfused, 50% of maximum (PGE1)
Description: (§1) The smooth muscle stimulant effects of test compounds were determined simultaneously in four different tissues that are known to be reactive to naturally occurring prostaglandins. Segments of rat stomach fundus, rat colon, chick rectum and rabbit aortic strip were obtained as described by: Vane, J. R., Brit. J. Pharmacol., 12: 344 (1957); Regoli, D. and Vane, J. R., Brit. J. Pharmacol., 23: 351 (1964); Mann, M. and West, G. B., Brit. J. Pharmacol., 5: 173 (1950); and Furchgott, R. F. and Bhadrakom, R., J. Pharmacol. Exper. Ther., 108: 129 (1953). One end of each preparation was tied to the bottom of a 10 ml tissue chamber and the other to a force displacement transducer (Grass FT-03) for continuous tension recording. The stomach, colon, and rectum segments were stretched to an initial tension of 1 g, while the aortic strip was subjected to 4 g. All preparations were left undisturbed for 1 hour prior to testing. The chambers were equipped with an external jacket through which water, maintained at 40° C, was circulated. Preparations were arranged one beneath the other in descending order (aorta, stomach, colon and rectum). Provision was made for bathing the four tissues successively so that they were superfused with the same fluid (Gaddum, H. J., Brit. J. Pharmacol., 6: 321 [1953]. The bathing fluid consisted of: Krebs bicarbonate solution aerated with a mixture of 95% O2 and 5% CO2 and warmed at 37° C; atropine sulphate (0.1 mcg/ml), phenoxybenzamine hydrochloride (0.1 mcg/ml), propranolol hydrochloride (3.0 mcg/ml), methysergide maleate (0.2 mcg/ml) and brompheniramine maleate (0.1 mcg/ml) were added to eliminate the possibility of smooth muscle responses being due to stimulation of cholinergic, adrenergic, serotonin or histamine receptors. The fluid was circulated by means of a roller pump and was allowed to drip over the preparations at a rate of 10 ml/minute.
(§2) Test compounds were diluted from stock solutions so as to administer quantities ranging from 0.001 100,000 ng in a volume of 0.5 ml. The compounds were applied by dripping on the uppermost tissue, at intervals of 10 to 20 minutes. Maximal increases in tension after each dose were measured and the results were used to plot dose-response curves. ED50 data (doses necessary to produce a response 50% of maximum) were then calculated graphically for each tissue.
(§3) Activity in each tissue was scored according to the following scale: […]

[3] = tested on: Blood Pressure and Heart Rate; test: Effects on Blood Pressure and Heart Rate in the Anesthetized Cat; type: in vivo; conditions: Felis catus, intravenous, 0.01 to 10.0 mcg/kg, scored only on hypotension, read-out: Test D Activity Value (ED50 mmHg, decrease in blood pressure);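 note: Anesthetized cats given intravenous doses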
Description: The acute effects of test compounds on blood pressure and heart rate were determined in cats of either sex anesthetized with a mixture of pentobarbital sodium (35 mg/kg, i.v.) and barbital sodium (100 mg/kg, i.v.). Cannulas were placed in the trachea to allow adequate spontaneous ventilation, in a femoral artery for blood pressure recording with a strain gage transducer, and in a saphenous vein for drug administration. Heart rate was recorded by means of a cardiotachometer driven by the R wave of the electrocardiogram. After a period of 10 minutes of stable recordings of blood pressure and heart rate, the test compound was administered intravenously at doses increasing from 0.01 to 10.0 mcg/kg, spaced one log and injected at 10 minutes intervals. All doses were injected in a volume of 0.1 ml/kg. Modifications of blood pressure and heart rate induced by the test compound were expressed both in absolute units (mmHg and beats/minutes) and as percent of values recorded immediately before administration of each dose. Biphasic responses were tabulated in the order in which they occur. The direction of the observed changes was also noted (+ for increases and - for decreases).
Activity of compounds in this test was judged only on the basis of the degree of hypotension observed. Thus, the ED50 mmHg (dose decreasing blood pressure by 50 mmHg) was calculated graphically and the compound scored according to the following scale: […]

[4] = tested on: chick rectum; test: Cascade Assay, rectum (smooth muscle stimulant effect); type: cell-based; conditions: superfused, 50% of maximum (PGE1)
Description: as §1, §2, §3

[5] = tested on: rabbit aortic strip; test: Cascade Assay, aorta (smooth muscle stimulant effect); type: cell-based; conditions: superfused, 50% of maximum (PGA2)
Description: as §1, §2, §3

[6] = tested on: Femoral Blood Flow; test: Effects on Femoral Blood Flow in the Dog; type: in vivo; conditions: anesthetized mongrel dog, intraarterial, 0.001 to 10 mcg
Description: The peripheral vasodilator or constrictor effects of these compounds were determined in mongrel dogs of either sex, weighing between 10 and 20 kg anesthestized intravenously with 35 mg/kg of sodium pentobarbital. An external iliac artery was dissected immediately above the femoral arch for a length of approximately 5 cm and a previously calibrated, non-connulating electromagnetic flowmeter sensor with a lumen between 2.5 and 3.5 mm was placed snugly around the vessel. Cannulas were placed in a branch of the artery arising distally to the location of the flowmeter sensor for intraarterial drug administrations, in the contralateral femoral artery for systemic blood pressure recordings and in the trachea for artificial respiration with room air. Femoral blood flow and systemic blood pressure were continously recorded with an electromagnetic flowmeter and pressure tranducer, respectively.
After an adequate control period, test compounds were injected intraarterially at one log-spaced doses ranging from 0.001 to 10 mcg., in a volume of 0.5 ml and at 5 to 10 minute intervals. Maximum changes in bloodflow, as well as any variations in blood pressure, were tabulated for each dose in absolute values (ml/min. and mmHg). The calculations were made taking as control values those existing immediately before administration of each dose. The direction of the observed change (plus for increase and minus for decrease) was also noted. The dose changing bloodflow by 100 ml/min (ED100 ml/min) was calculated graphically and was used for scoring activity as follows: […]

[7] = tested on: rat colon; test: Cascade Assay, colon (smooth muscle stimulant effect); type: cell-based; conditions: superfused, 50% of maximum (PGF2α)
Description: as §1, §2, §3

[8] = tested on: Gastric Secretion; test: Effects on Gastric Secretion in the Rat; type: in vivo; conditions: pylorus-ligated rat, subcutaneous, 2 x 1.5 mg/kg (total 3.0 mg/kg), 4 hours
Description: A procedure based on that described by Lipmann (J. Pharm. Pharmacol., 21:335 [1968]) was used to assess the influence of test compounds on gastric secretion. Rats of one sex weighing 150 to 200 g were randomly divided into groups of six animals each and fasted for 48 hours previously to the experiments, water being available adlibitum. The animals were anesthetized with ether, the abdomen was opened through a midline incision and the pylorus was ligated. Test compounds were diluted from stock solution so as to administer a dose of 1.5 mg/kg in a volume equivalent to 1 ml/kg. Subcutaneous injections were applied immediately after surgery and again 2 hours later, so that a total dose of 3.0 mg/kg was administered. Dilutions were made with phosphate buffer (pH 7.38) as recommended by Lee et al. (Prostaglandins 3:29 [1973]), in order to insure adequate stability of drugs at the subcutaneous depot. Each compound was tested in one group of rats; an additional control group received only the vehicle.
Four hours after pyloric ligation the animals were killed with ether, the cardias ligated and the stomachs removed. The volume of gastric secretion was measured and the contents centrifuged at 500 rpm for 10 minutes. Total acid in the supernatant was titrated against a 0.1 N sodium hydroxide solution and the amount expressed in mEq.
Volume and total acid values of the treated group were compared with those of the controls by the "T" test. Antisecretory activity was scored according to the following scale: […]

SMILES	EC50 [1]	Test E Cascade Assay, Stomach, Activity Value (ED50) [2]	ED (50 mmHg) [3]	Test E Cascade Assay, Rectum, Activity Value (ED50) [4]	Test E Cascade Assay, Aorta, Activity Value (ED50) [5]	Test C Activity Value (ED100 ml/min, increase in femoral blood flow) [6]	Test E Cascade Assay, Colon, Activity Value (ED50) [7]	Test B Activity Value (% decrease in acidity, inhibition of gastric secretion) [8]
O=C(O)CCCCCC[C@H]1C(=O)CC[C@@H]1/C=C/[C@H](O)C1CCC2(CCCCC2)CC1 (relative stereo) [TR-4020, dl 7-{5-oxo-2R-[3R-hydroxy-3-(spiro[5.5]undecan-3-yl)-1E-propenyl]cyclopent-1R-yl}heptanoic acid]	> 10 µg/mL	2 (101 - 1000)	> 0.01 mg/kg	0 (>10000)	0 (>10000)	0 (>10.0)	0 (>10000)	0 (<26)
O=C(O)CCC/C=C\C[C@H]1C(=O)CC[C@@H]1/C=C/[C@@H](O)C1CC2(CCC2)C1 (relative stereo) [TR-4146, dl 7-{5-oxo-2R-[3S-hydroxy-3-(spiro[3.3]hept-2-yl)-1E-propenyl]cyclopent-1R-yl}hept-5Z-enoic acid]	> 10 µg/mL	1 (1001 - 10000)	> 0.01 mg/kg	–	0 (>10000)	0 (>10.0)	2 (101 - 1000)	0 (<26)
O=C(O)CCC/C=C\C[C@H]1C(=O)CC[C@@H]1/C=C/[C@H](O)C1CC2(CCC2)C1 (relative stereo) [TR-4147, dl 7-{5-oxo-2R-[3R-hydroxy-3-(spiro[3.3]hept-2-yl)-1E-propenyl]cyclopent-1R-yl}hept-5Z-enoic acid]	> 10 µg/mL	2 (101 - 1000)	0.00011 to 0.001 mg/kg	2 (101 - 1000)	1 (1001 - 10000)	0 (>10.0)	0 (>10000)	0 (<26)
COC(=O)CCCCCC[C@@H]1[C@@H](/C=C/[C@@H](O)C2CC3(CCC3)C2)[C@H](O)C[C@H]1O [TR-4138, Methyl 7-{3R, 5R-dihydroxy-2R-[3S-hydroxy-3-(spirol[3.3]hept-2-yl)-1E-propenyl]cyclopent-1R-yl}heptanoate]	> 10 µg/mL	0 (>10000)	> 0.01 mg/kg	0 (>10000)	0 (>10000)	–	0 (>10000)	–

Second part, led by results:

EC50 [1]	SMILES	Test E Cascade Assay, Stomach, Activity Value (ED50) [2]	ED (50 mmHg) [3]	Test E Cascade Assay, Rectum, Activity Value (ED50) [4]	Test E Cascade Assay, Aorta, Activity Value (ED50) [5]	Test C Activity Value (ED100 ml/min, increase in femoral blood flow) [6]	Test E Cascade Assay, Colon, Activity Value (ED50) [7]	Test B Activity Value (% decrease in acidity, inhibition of gastric secretion) [8]
> 10 µg/mL	O=C(O)CCCCCC[C@H]1C(=O)CC[C@@H]1/C=C/[C@@H](O)C1CCC2(CCCCC2)CC1 (relative stereo) [TR-4021, dl 7-{5-oxo-2R-[3S-hydroxy-3-(spiro[5.5]undecan-3-yl)-1E-propenyl]cyclopent-1R-yl} heptanoic acid]	4 (<10)	> 0.01 mg/kg	0 (>10000)	0 (>10000)	0 (>10.0)	0 (>10000)	0 (<26)
> 10 µg/mL	O=C(O)CCCCCC[C@H]1C(=O)CC[C@@H]1/C=C/[C@@H](O)C1CC2(CCC2)C1 (relative stereo) [TR-4136, dl 7-{5-oxo-2R-[3S-hydroxy-3-(spiro[3.3]hept-2-yl)-1E-propenyl]cyclopent-1R-yl}heptanoic acid]	2 (101 - 1000)	> 0.01 mg/kg	1 (1001 - 10000)	0 (>10000)	0 (>10.0)	0 (>10000)	1 (26-50, not significant)
> 10 µg/mL	O=C(O)CCCCCC[C@H]1C(=O)CC[C@@H]1/C=C/[C@H](O)C1CC2(CCC2)C1 (relative stereo) [TR-4137, dl 7-{5-oxo-2R-[3R-hydroxy-3-(spiro[3.3]hept-2-yl)-1E-propenyl]cyclopent-1R-yl}heptanoic acid]	1 (1001 - 10000)	0.00011 to 0.001 mg/kg	–	0 (>10000)	3 (0.01 - 0.1)	0 (>10000)	3 (51-75)
